Measurements taken from PubChem BioAssay AID1963835 (Molecular Pharmacology Branch, DTP, NCI, 2024).

Tested on: 699152-130-R-J1-PDC complex spheroid viability
Test: Anticancer human tumor 699152-130-R-J1-PDC patient-derived pancreatic carcinoma cell line growth inhibition [POLQ]
Details: for IC50: curve of first compound; for viability, T/C: stronger effect = lower value; active = viability on the fitted dose curve at most 10% of control; inactive = the rest
Outline: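 PDC + HUVEC + MSC complex spheroids; POLQ inhibitors ± partner drugs; top conc. at/near clinical Cmax, else 10 microM (SN-38 1 microM), half-log dilutions; 37 degrees C, 5% CO2.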

[1] = second compound 0.0316 µM, first compound 0.00316 µM
[2] = second compound 0.0316 µM, first compound 0.01 µM
[3] = second compound 0.0316 µM, first compound 0.0316 µM
[4] = second compound 0.0316 µM, first compound 0.1 µM
[5] = second compound 0.0316 µM, first compound 0.316 µM
[6] = second compound 0.0316 µM, first compound 1 µM
[7] = second compound 0.1 µM, first compound 0.00316 µM
[8] = second compound 0.1 µM, first compound 0.01 µM
[9] = second compound 0.1 µM, first compound 0.0316 µM
[10] = second compound 0.1 µM, first compound 0.1 µM
[11] = second compound 0.1 µM, first compound 0.316 µM
[12] = second compound 0.1 µM, first compound 1 µM
[13] = second compound 0.316 µM, first compound 0.00316 µM
[14] = second compound 0.316 µM, first compound 0.01 µM
[15] = second compound 0.316 µM, first compound 0.0316 µM
[16] = second compound 0.316 µM, first compound 0.1 µM
[17] = second compound 0.316 µM, first compound 0.316 µM
[18] = second compound 0.316 µM, first compound 1 µM
[19] = second compound 1 µM, first compound 0.00316 µM
[20] = second compound 1 µM, first compound 0.01 µM
[21] = second compound 1 µM, first compound 0.0316 µM
[22] = second compound 1 µM, first compound 0.1 µM
[23] = second compound 1 µM, first compound 0.316 µM
[24] = second compound 1 µM, first compound 1 µM
[25] = second compound 3.16 µM, first compound 0.00316 µM
[26] = second compound 3.16 µM, first compound 0.01 µM
[27] = second compound 3.16 µM, first compound 0.0316 µM
[28] = second compound 3.16 µM, first compound 0.1 µM
[29] = second compound 3.16 µM, first compound 0.316 µM
[30] = second compound 3.16 µM, first compound 1 µM
[31] = second compound 10 µM, first compound 0.00316 µM
[32] = second compound 10 µM, first compound 0.01 µM
[33] = second compound 10 µM, first compound 0.0316 µM
[34] = second compound 10 µM, first compound 0.1 µM
[35] = second compound 10 µM, first compound 0.316 µM
[36] = second compound 10 µM, first compound 1 µM
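Note: spheroids exposed to agents for 7 days before viability reading.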
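Throughout, for viability, T/C: percent of DMSO vehicle control viability so 100% = vehicle and 0% = no viable signal.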

C=CCn1c(=O)c2cnc(Nc3ccc(N4CCN(C)CC4)cc3)nc2n1-c1cccc(C(C)(C)O)n1 + Nc1ccc(C#CCN(C(=O)Cc2ncc(C(F)(F)F)cc2C(F)(F)F)c2ccc(F)cc2)nn1
> 1000 nM: IC50 (second compound 0.0316 µM) | IC50 (second compound 0.1 µM) | IC50 (second compound 0.316 µM) | IC50 (second compound 1 µM) | IC50 (second compound 3.16 µM) | IC50 (second compound 10 µM)
inactive: viability, T/C [1] 94.2% | viability, T/C [2] 100% | viability, T/C [3] 103% | viability, T/C [4] 93.2% | viability, T/C [5] 96.1% | viability, T/C [6] 78.2% | viability, T/C [7] 105% | viability, T/C [8] 98% | viability, T/C [9] 98.1% | viability, T/C [10] 99.1% | viability, T/C [11] 89% | viability, T/C [12] 68.8% | viability, T/C [13] 104% | viability, T/C [14] 113% | viability, T/C [15] 108% | viability, T/C [16] 106% | viability, T/C [17] 91% | viability, T/C [18] 71.9% | viability, T/C [19] 97.9% | viability, T/C [20] 94.7% | viability, T/C [21] 98.5% | viability, T/C [22] 105% | viability, T/C [23] 87.3% | viability, T/C [24] 74.7% | viability, T/C [25] 107% | viability, T/C [26] 115% | viability, T/C [27] 100% | viability, T/C [28] 112% | viability, T/C [29] 101% | viability, T/C [30] 82.8% | viability, T/C [31] 122% | viability, T/C [32] 126% | viability, T/C [33] 109% | viability, T/C [34] 104% | viability, T/C [35] 104% | viability, T/C [36] 81.7%

CC[C@@]1(O)C(=O)OCc2c1cc1n(c2=O)Cc2cc3c(CN(C)C)c(O)ccc3nc2-1 + Nc1ccc(C#CCN(C(=O)Cc2ncc(C(F)(F)F)cc2C(F)(F)F)c2ccc(F)cc2)nn1
inactive: viability, T/C (second compound 0.0316 µM, first compound 0.000316 µM) 109% | viability, T/C (second compound 0.0316 µM, first compound 0.001 µM) 106% | viability, T/C [1] 97.9% | viability, T/C [2] 91.8% | viability, T/C [3] 80.6% | viability, T/C [4] 65.9% | viability, T/C (second compound 0.1 µM, first compound 0.000316 µM) 100% | viability, T/C (second compound 0.1 µM, first compound 0.001 µM) 108% | viability, T/C [7] 95.3% | viability, T/C [8] 92.1% | viability, T/C [9] 84.4% | viability, T/C [10] 57.7% | viability, T/C (second compound 0.316 µM, first compound 0.000316 µM) 99.7% | viability, T/C (second compound 0.316 µM, first compound 0.001 µM) 105% | viability, T/C [13] 102% | viability, T/C [14] 90% | viability, T/C [15] 80.1% | viability, T/C [16] 73.2% | viability, T/C (second compound 1 µM, first compound 0.000316 µM) 113% | viability, T/C (second compound 1 µM, first compound 0.001 µM) 97.8% | viability, T/C [19] 109% | viability, T/C [20] 97% | viability, T/C [21] 82.6% | viability, T/C [22] 69.9% | viability, T/C (second compound 3.16 µM, first compound 0.000316 µM) 102% | viability, T/C (second compound 3.16 µM, first compound 0.001 µM) 105% | viability, T/C [25] 95.8% | viability, T/C [26] 108% | viability, T/C [27] 85.2% | viability, T/C [28] 62.2% | viability, T/C (second compound 10 µM, first compound 0.000316 µM) 109% | viability, T/C (second compound 10 µM, first compound 0.001 µM) 119% | viability, T/C [31] 123% | viability, T/C [32] 114% | viability, T/C [33] 108% | viability, T/C [34] 68%
> 100 nM: IC50 (second compound 0.0316 µM) | IC50 (second compound 0.1 µM) | IC50 (second compound 0.316 µM) | IC50 (second compound 1 µM) | IC50 (second compound 3.16 µM) | IC50 (second compound 10 µM)

CCc1c2c(nc3ccc(O)cc13)-c1cc3c(c(=O)n1C2)COC(=O)[C@]3(O)CC + Nc1ccc(C#CCN(C(=O)Cc2ncc(C(F)(F)F)cc2C(F)(F)F)c2ccc(F)cc2)nn1
48.3 nM: IC50 (second compound 0.1 µM)
active: viability, T/C [18] 8.12%
inactive: viability, T/C [1] 82.1% | viability, T/C [2] 55.2% | viability, T/C [3] 58.4% | viability, T/C [4] 47.2% | viability, T/C [5] 36.4% | viability, T/C [6] 11.4% | viability, T/C [7] 83.1% | viability, T/C [8] 57.4% | viability, T/C [9] 52% | viability, T/C [10] 48.3% | viability, T/C [11] 32.6% | viability, T/C [12] 12.6% | viability, T/C [13] 72.7% | viability, T/C [14] 61.6% | viability, T/C [15] 55.8% | viability, T/C [16] 47.1% | viability, T/C [17] 32% | viability, T/C [19] 74.7% | viability, T/C [20] 55.2% | viability, T/C [21] 51.2% | viability, T/C [22] 44.3% | viability, T/C [23] 30.5% | viability, T/C [24] 14.9% | viability, T/C [25] 88.7% | viability, T/C [26] 66.4% | viability, T/C [27] 54.4% | viability, T/C [28] 48.5% | viability, T/C [29] 29.6% | viability, T/C [30] 10.8% | viability, T/C [31] 92.2% | viability, T/C [32] 71.2% | viability, T/C [33] 52.2% | viability, T/C [34] 44.2% | viability, T/C [35] 27.7% | viability, T/C [36] 9.98%
36.3 nM: IC50 (second compound 1 µM)
60.2 nM: IC50 (second compound 0.0316 µM)
55.5 nM: IC50 (second compound 3.16 µM)
49.5 nM: IC50 (second compound 10 µM)
66.8 nM: IC50 (second compound 0.316 µM)
